Assay: wn = mass fraction of the nth substance listed
Details: Liquid; for viscosity: Falling or rolling sphere viscometry; for mass density: Vibrating tube method

CN(C)CCO [2-(N,N-dimethylamino)ethanol] + O
Details | mass density, w1 = 0.1005 [kg/m3] | mass density, w1 = 0.202 [kg/m3] | mass density, w1 = 0.3005 [kg/m3] | mass density, w1 = 0.3995 [kg/m3] | viscosity, w1 = 0.1005 [mPa·s] | viscosity, w1 = 0.202 [mPa·s] | viscosity, w1 = 0.3005 [mPa·s] | viscosity, w1 = 0.3995 [mPa·s]
373.15 K, 30000 kPa | 964.4 | 956.3 | 947.9 | 938.5 | 0.3711 | 0.4702 | 0.6099 | 0.7742
373.15 K, 40000 kPa | 968.7 | 960.9 | 952.4 | 943.3 | 0.3746 | 0.4771 | 0.6239 | 0.7998
373.15 K, 50000 kPa | 972.8 | 964.9 | 956.6 | 947.6 | – | – | – | –
373.15 K, 60000 kPa | 976.8 | 968.9 | 960.9 | 952.1 | 0.3833 | 0.4923 | 0.6493 | 0.8409
373.15 K, 70000 kPa | 980.9 | 973 | 965 | 956.2 | – | – | – | –
373.15 K, 80000 kPa | 984.7 | 976.9 | 969.1 | 960.4 | 0.3916 | 0.5073 | 0.6735 | 0.8827
373.15 K, 90000 kPa | 988.6 | 980.6 | 972.8 | 964.3 | – | – | – | –
373.15 K, 100000 kPa | 992.1 | 984.3 | 976.4 | 968.1 | 0.3984 | 0.5213 | 0.6978 | 0.9306
373.15 K, 110000 kPa | 995.9 | 988 | 980.3 | 971.9 | – | – | – | –
373.15 K, 120000 kPa | 999.5 | 991.6 | 983.8 | 975.6 | – | – | – | –
373.15 K, 130000 kPa | 1003 | 995 | 987.3 | 979.1 | – | – | – | –
373.15 K, 140000 kPa | 1006.3 | 998.4 | 990.7 | 982.6 | – | – | – | –
393.15 K, 100 kPa | 934.5 | 925.2 | 915 | 903.9 | – | – | – | –
393.15 K, 500 kPa | 934.9 | 925.5 | 915.5 | 904.3 | – | – | – | –
393.15 K, 1000 kPa | 935.1 | 925.7 | 915.7 | 904.6 | – | – | – | –
393.15 K, 2000 kPa | 935.6 | 926.3 | 916.3 | 905.2 | – | – | – | –
393.15 K, 5000 kPa | 937.1 | 927.9 | 917.9 | 907 | 0.2917 | 0.3533 | 0.4325 | 0.5209
393.15 K, 10000 kPa | 939.7 | 930.5 | 920.8 | 910 | 0.2952 | 0.3557 | 0.4367 | 0.5259
393.15 K, 15000 kPa | 942.1 | 933 | 923.4 | 912.8 | 0.2973 | 0.3585 | 0.4425 | 0.5368
393.15 K, 20000 kPa | 944.6 | 935.6 | 926.1 | 915.7 | 0.2998 | 0.3624 | 0.4483 | 0.5458
393.15 K, 25000 kPa | – | – | – | – | 0.3019 | 0.366 | 0.4536 | 0.5538
393.15 K, 30000 kPa | 949.3 | 940.5 | 931.2 | 921 | 0.3036 | 0.3687 | 0.4597 | 0.5613
393.15 K, 40000 kPa | 953.9 | 945.2 | 936.2 | 926.3 | 0.3078 | 0.3736 | 0.4697 | 0.578
393.15 K, 50000 kPa | 958.2 | 949.6 | 940.8 | 931 | – | – | – | –
393.15 K, 60000 kPa | 962.6 | 954.1 | 945.3 | 935.9 | 0.3147 | 0.3862 | 0.489 | 0.6086
393.15 K, 70000 kPa | 966.9 | 958.5 | 949.8 | 940.5 | – | – | – | –
393.15 K, 80000 kPa | 971 | 962.4 | 953.9 | 944.8 | 0.322 | 0.3985 | 0.5076 | 0.6407
393.15 K, 90000 kPa | 975 | 966.6 | 958.1 | 949.2 | – | – | – | –
393.15 K, 100000 kPa | 978.8 | 970.5 | 962.2 | 953.2 | 0.3308 | 0.4097 | 0.5265 | 0.6716
393.15 K, 110000 kPa | 982.7 | 974.3 | 966 | 957.3 | – | – | – | –
393.15 K, 120000 kPa | 986.5 | 978.2 | 969.9 | 961.2 | – | – | – | –
393.15 K, 130000 kPa | 990 | 981.7 | 973.5 | 964.9 | – | – | – | –
393.15 K, 140000 kPa | 993.7 | 985.3 | 977.2 | 968.9 | – | – | – | –

Source: the NIST ThermoML archive (doi:10.1016/j.jct.2017.05.001)
